Measured values: patent US6693103B2 (Wyeth, priority 1999, dated 2004)

Experiments:
[1] = tested on: rat uterine decidualization; experiment: Rat decidualization assay; assay type: in vivo; conditions: ovariectomized female Sprague-Dawley rats, s.c.; average of dose-response curves
Description: The animals are treated once daily for seven days.
Uteri are removed and trimmed of fat.
Decidual response: [(D−C)/C]×100%

## C#C[C@]1(O)CC[C@H]2[C@@H]3CCC4=CC(=O)CC[C@@H]4[C@H]3C(=C)C[C@@]21CC [3-Ketodesogestrel]
[1]
  average EC50 for uterine weight (decidual response): 0.10 mg/kg

## C#C[C@]1(O)CC[C@H]2[C@@H]3CCC4=CC(=O)CC[C@@H]4[C@H]3CC[C@@]21CC [Levonorgestrel]
[1]
  average EC50 for uterine weight (decidual response): 0.10 mg/kg

## CC1(C)CC(=O)Nc2ccc(-c3cccc(C#N)c3)cc21 [Example 42, 3-(4,4-Dimethyl-2-oxo-1,2,3,4-tetrahydroquinolin-6-yl)benzonitrile]
other
  melting point: 190 to 192 °C
